The source made the active and inactive calls. The calls are words filed in the database; no cut-off is given here.
Tests used:
Rattus norvegicus [1] = assay: Antiserotonin activity in sc dosed Sprague-Dawley rat assessed as inhibition of feet weight gain after 30 mins; conditions: 0.5 h
Cavia porcellus [2] = organism: Cavia porcellus; assay: animal or person; type: functional; conditions: Duncan-Hartley, ip
Description: Antihistamine activity in ip dosed Duncan-Hartley guinea pig assessed as protection of animal from death caused by histamine aerosol-induced bronchoconstriction

Mus musculus [3] = assay: Anticholinergic activity in ip dosed Carworth CF1 mouse assessed as dose required to produce pupil dilation to 1.5 micrometer units in 50% mouse; type: functional
Rattus norvegicus [4] = assay: Antiserotonin activity in Sprague-Dawley rat assessed as inhibition of feet weight gain at 10 mg/kg, sc after 30 mins; type: functional, organism-based; set-up: dose 10 mg/kg
Cavia porcellus [5] = assay: Antihistamine activity in Duncan-Hartley guinea pig assessed as protection of animal from death caused by histamine aerosol-induced bronchoconstriction at 12.5 mg/kg, ip; type: functional, organism-based; set-up: dose 12.5 mg/kg
Mus musculus [6] = assay: Anticholinergic activity in Carworth CF1 mouse assessed as dose required to produce pupil dilation to 1.5 micrometer units in 50% mouse at 324 mg/kg, ip; type: functional, organism-based; set-up: dose 324 mg/kg
Mus musculus [7] = assay: Anticholinergic activity in ip dosed Carworth CF1 mouse assessed as pupil dilation to 15 micrometer units in 100% mouse; type: functional

| Structure (SMILES) | ED50 (Rattus norvegicus [1]) | ED50 (Cavia porcellus [2]) | ED (Mus musculus [3]) | inhibition (Rattus norvegicus [4]) | inhibition (Cavia porcellus [5]) | inhibition (Mus musculus [6]) | ED (Mus musculus [7]) |
| --- | --- | --- | --- | --- | --- | --- | --- |
| CN1CCC(=C2c3ccccc3C=Cc3ccccc32)CC1.Cl [CYPROHEPTADINE HYDROCHLORIDE] | 0.02 mg/kg | 0.05 mg/kg | 4 mg/kg | – | – | – | – |
| CN1CCC(=C2c3ccccc3C3=C(c4ccccc42)C2CCC3O2)CC1 | – | – | – | inactive | inactive | inactive | – |
| CN1CCC(=C2c3ccccc3C(CO)=C(CO)c3ccccc32)CC1 | – | 12.5 mg/kg | 4 mg/kg | inactive | – | – | – |
| C1=CC2OC1C1=C2c2ccccc2C(=C2CCNCC2)c2ccccc21 | – | – | – | inactive | inactive | inactive | – |
| CN1CCC(=C2c3ccccc3C3=C(c4ccccc42)C2(C)C=CC3O2)CC1 (stereo not drawn) | – | – | – | inactive | inactive | inactive | – |
| Cc1occ2c1-c1ccccc1C(=C1CCN(C)CC1)c1ccccc1-2 | – | – | 4 mg/kg | inactive | inactive | – | – |
| CN1CCC(=C2c3ccccc3C3=C(C(=O)OC3)c3ccccc32)CC1.O=C(O)C(=O)O | – | 9.7 mg/kg | – | inactive | – | – | <4 mg/kg |
| c1ccc2c(c1)C(=C1CCNCC1)c1ccccc1-c1cocc1-2 | – | – | – | inactive | inactive | inactive | – |
| CN1CCC(=C2c3ccccc3C3=C(c4ccccc42)C2C=CC3O2)CC1 | – | – | – | inactive | inactive | inactive | – |
| CN1CCC(=C2c3ccccc3-c3cocc3-c3ccccc32)CC1 | – | – | 36 mg/kg | inactive | inactive | – | – |
| CN1CCC(=C2c3ccccc3C3COCC3c3ccccc32)CC1 (stereo not drawn) | – | – | – | inactive | inactive | inactive | – |
